PMC11292626, “5-Fluoroindole Reduces the Bacterial Burden in a Murine Model of Mycobacterium tuberculosis Infection” (ACS Omega, 2024)
Read-outs that look alike come from different tables or passages of the source. Marks after values point to notes of the source that are not given here.

Legend:
[1] = test system: Mycobacterium tuberculosis H37Rv Strain; assay: MIC by resazurin reduction microplate assay (REMA), H37Rv; format: cell-based; conditions: Mtb H37Rv; for MIC: REMA
[2] = Chemical stability at pH 1.2, 7.4 and 9.1; format: physicochemical; conditions: 37 °C for 24 h
Protocol: The compounds to be tested were prepared in a 100 μM solution and incubated at 37 °C for 24 h in three solutions representing the physiologically relevant pHs to drug administration: pH 1.2 (stomach), pH 7.4 (plasma), and pH 9.2 (intestinal tissue). The compounds were quantified by HPLC-MS/MS. The chemical stability experiments were carried out in triplicates to ensure reproducibility. The results were presented as percentage, comparing the signal at time zero of the assay, considering this measure 100%, with measurements after the incubation time. Alprenolol was used as the analytical control (data not shown). The results were presented as the percentage, comparing the signal at time zero of the assay (100%) with the signal produced by concentrations after the incubation period.

[3] = Aqueous solubility at different pHs; format: physicochemical; conditions: thermodynamic from solid, 25 °C for 4 h
Protocol: The compound was weighed (1 mg) and solubilized in phosphate-buffered saline (PBS, pH 7.4), HCl 0.1 M (pH 1.2), and NH4HCO3 0.1 M (pH 9.2) to a final concentration of 1 mg/mL. The solutions were kept under stirring (250 rpm) for 4h at 37 °C. The solutions were filtered ([…] PDVA filter) and analyzed by HPLC. DMSO solution 1 mg/mL was used as the control for 100% soluble.

[4] = Chemical stability in H2O at 37 °C, open and closed system (volatility assay)
Mtb H37Rv strain = assay: In vivo model of TB infection in mice; conditions: for lungs mean log10 CFU/mL ± SD / spleen weight mean g ± SD: gavage, single daily dose, 15 administrations; for toxicity in mice (in words): infected mice, up to 21 days
[5] = Metabolic stability in rat liver microsomes; format: in vitro ADME; conditions: rat
Protocol: The compound was incubated at 37 °C in the concentration of 20 μM with rat liver microsomal fractions in PBS solution at pH 7.4 solution. As previously described,[31] rat liver microsomal fractions were seeded by centrifugation at 9.000 × g. To the supernatant containing the postmithocondrial with cytosolic and membrane-bound enzymes, 4 μM 5-FI was added and incubated at 37 °C. The interaction between the compound in the incubation mixture and the enzyme containing NADPH at 1 mg/mL concentration was measured by HPLC-MS/MS technique to determine the in vitro compound consumption by the microsomal fractions at 0, 5, 15, and 30 min reaction (incubation) time. The intrinsic compound clearance was taken as the half-life, and the disappearance was compared with the positive control, verapamil(2 μM).

[6] = In vivo absorption assay: plasma concentration after gavage; conditions: mice, gavage 400 mg/kg
[7] = test system: tryptophan transport system of Mtb H37Rv strain; conditions: tryptophan transport system of Mtb H37Rv strain ref 27; read-out: Michaelis–Menten constant (KM); cited from earlier work
[8] = Mycobacterium tuberculosis, H37RV, most frequent value of three independent assays
[9] = most frequent value of three independent assays

N[C@@H](Cc1c[nH]c2ccc(F)cc12)C(=O)O [5-fluorotryptophan, reference compound]
MIC ([1]; Mycobacterium tuberculosis, H37RV): > 20 µg/mL | MIC [1, 8]: > 90 µM

Clc1ccc2[nH]ccc2c1 [Compound 2, 5-chloroindole]
MIC [1, 9]: >263.9 µM | MIC [1, 8]: > 264 µM

Brc1ccc2[nH]ccc2c1 [Compound 3, 5-bromoindole]
MIC [1, 9]: >204.0 µM | MIC [1, 8]: > 204 µM

N#Cc1ccc2[nH]ccc2c1 [Compound 4]
MIC [1, 8]: > 281 µM

O=[N+]([O-])c1ccc2[nH]ccc2c1 [Compound 5]
MIC [1, 8]: > 247 µM

Oc1ccc2[nH]ccc2c1 [Compound 6]
MIC [1, 8]: > 300 µM

COc1ccc2[nH]ccc2c1 [Compound 7]
MIC [1, 8]: > 272 µM

Fc1cccc2[nH]ccc12 [Compound 8]
reduction of activity compared to 5-FI (MIC ratio) [1]: approximately 4 fold | MIC [1, 8]: 18.5 µM

Fc1ccc2cc[nH]c2c1 [Compound 9]
reduction of activity compared to 5-FI (MIC ratio) [1]: more than 15 fold | MIC [1, 8]: 74 µM

Fc1cccc2cc[nH]c12 [Compound 10]
reduction of activity compared to 5-FI (MIC ratio) [1]: > 31 fold | MIC [1, 8]: 148 µM

Cl.Fc1ccc2[nH]ccc2c1 [Compound 11, 5-fluoroindole hydrochloride]
chemical stability pH 1.2 ([2]; 0.1 M HCl): 100% | chemical stability pH 9.1 ([2]; 0.1 M NH4HCO3): 90.5% | chemical stability pH 7.4 ([2]; PBS): 80.3% | chemical stability at all pH values tested ([2]; pH 1.2, 7.4, 9.1): > 80% | MIC [1, 9]: 29.1 µM | solubility at 4 h ([3]; pH 1.2, simulated gastric fluid, 0.1 M HCl, read-out: aqueous solubility pH 1.2): 2.3 µM | solubility at 4 h ([3]; pH 9.1, aqueous buffer, 0.1 M NH4HCO3, read-out: aqueous solubility pH 9.1): 1110 µM | solubility at 4 h ([3]; phosphate-buffered saline, pH 7.4, aqueous buffer, PBS, read-out: aqueous solubility pH 7.4): 600 µM | chemical stability, closed system ([4]; 0 h): 100 ± 0.0% | chemical stability, open system ([4]; 0 h): 100 ± 0.0% | chemical stability, closed system ([4]; 1 h): 95.3 ± 0.1% | chemical stability, open system ([4]; 1 h): 97.6 ± 0.0% | chemical stability, closed system ([4]; 2 h): 95.0 ± 0.2% | chemical stability, open system ([4]; 2 h): 98.0 ± 0.1% | chemical stability, closed system ([4]; 4 h): 104.6 ± 0.2% | chemical stability, open system ([4]; 4 h): 100.3 ± 0.5% | chemical stability, closed system ([4]; 6 h): 97.9 ± 0.1% | chemical stability, open system ([4]; 6 h): 103.9 ± 0.1% | chemical stability, closed system ([4]; 24 h): 110.8 ± 0.2% | chemical stability, open system ([4]; 24 h): 113.5 ± 0.1% | chemical stability, closed system ([4]; 48 h): 124.1 ± 0.1% | chemical stability, open system ([4]; 48 h): 114.3 ± 0.0% | lungs mean log10 CFU/mL ± SD (Mtb H37Rv strain; 10 μmol/kg): 5.80 ± 0.20 log10 CFU/mL | spleen weight mean g ± SD (Mtb H37Rv strain; 10 μmol/kg): 0.58 ± 0.19 g | lungs mean log10 CFU/mL ± SD (Mtb H37Rv strain; 30 μmol/kg): 6.21 ± 0.32 log10 CFU/mL | spleen weight mean g ± SD (Mtb H37Rv strain; 30 μmol/kg): 0.55 ± 0.23 g | lungs mean log10 CFU/mL ± SD (Mtb H37Rv strain; 100 μmol/kg): 5.86 ± 0.67 log10 CFU/mL | spleen weight mean g ± SD (Mtb H37Rv strain; 100 μmol/kg): 0.62 ± 0.35 g | number of CFUs in the lungs compared to the EC (early control) group (in words) (Mtb H37Rv strain; 200 μmol/kg): significantly reduced | reduction of mycobacterial load in the lungs compared to vehicle group (in words) (Mtb H37Rv strain; 200 μmol/kg): significantly reduce | lungs mean log10 CFU/mL ± SD (Mtb H37Rv strain; 200 μmol/kg): 3.68 ± 0.45***^, ### log10 CFU/mL | spleen weight mean g ± SD (Mtb H37Rv strain; 200 μmol/kg): 0.28 ± 0.06 g | reduction of CFUs in the lungs compared to vehicle group (in words) (Mtb H37Rv strain; 10, 30 and 100 μmol/kg): not able to reduce | toxicity in mice (in words) (Mtb H37Rv strain; 200 μmol/kg, listed as 5-FI.HCL): no evidence of a toxic effect | toxicity in mice (in words) (Mtb H37Rv strain; 200 μmol/kg, listed as 5-FI.HCl): no toxicity | CLint scaled ([5]; pH 7.4, read-out: metabolic stability Clint (intrinsic clearance)): 48 mL/min/kg | half-life ([5]; pH 7.4, read-out: metabolic stability t1/2 (half-life)): 12 min | plasma concentration, mean ± SD ([6]; 15 min): 32.6 ± 14.7 µM | plasma concentration, mean ± SD ([6]; 30 min): 82.3 ± 35.05 µM | plasma concentrations (range) ([6]; joint range over 5-FI and 5-FI.HCl, 15 and 30 min, 400 mg/kg): 32.6 to 82.3 µM

NNC(=O)c1ccncc1 [INH, isoniazid, reference compound]
MIC [1, 8]: 2.3 µM | lungs mean log10 CFU/mL ± SD (Mtb H37Rv strain; 150 μmol/kg): 2.43 ± 0.40***^, ### log10 CFU/mL | spleen weight mean g ± SD (Mtb H37Rv strain; 150 μmol/kg): 0.23 ± 0.04 g

CO[C@H]1/C=C/O[C@@]2(C)Oc3c(C)c(O)c4c(O)c(c(/C=N/N5CCN(C)CC5)c(O)c4c3C2=O)NC(=O)/C(C)=C\C=C\[C@H](C)[C@H](O)[C@@H](C)[C@@H](O)[C@@H](C)[C@H](OC(C)=O)[C@@H]1C [RIF, rifampin, reference compound]
MIC [1, 8]: 0.09 µM

N[C@@H](Cc1c[nH]c2ccccc12)C(=O)O [tryptophan, L-tryptophan]
Km [7]: 1250 µM
